Reference: ChEMBL document CHEMBL6134890, “Terminally Symmetric β-Turn Peptides for Multidrug-Resistant Bacterial Infections” (J Med Chem, 2025)
≈ marks a conversion by molar mass, not a printed value. Bridge positions count the residues as written; N and C are the ends. Square brackets hold non-standard residues; d marks the D form. Peptide text beside a SMILES is read from it. * marks the point of attachment. X1 = CC[C@H](C)CCCCC(=O)*; Dab = NCC[C@H](N)C(=O)O

Key:
[1] = tested on: Acinetobacter baumannii; test: Antimicrobial activity against multi-drug resistant Acinetobacter baumannii assessed as reduction in bacterial growth by broth dilution method; type: functional
[2] = tested on: Escherichia coli; test: Antimicrobial activity against Escherichia coli ATCC 25922 assessed as reduction in bacterial growth by broth dilution method; type: functional
[3] = tested on: Enterococcus faecalis; test: Antimicrobial activity against multi-drug resistant Enterococcus faecalis assessed as reduction in bacterial growth by broth dilution method; type: functional
[4] = tested on: Klebsiella pneumoniae; test: Antimicrobial activity against multi-drug resistant Klebsiella pneumoniae assessed as reduction in bacterial growth by broth dilution method; type: functional
[5] = tested on: Staphylococcus epidermidis; test: Antimicrobial activity against multi-drug resistant Staphylococcus epidermidis assessed as reduction in bacterial growth by broth dilution method; type: functional
[6] = tested on: Staphylococcus aureus; test: Antimicrobial activity against Staphylococcus aureus ATCC 25923 assessed as reduction in bacterial growth by broth dilution method; type: functional
[7] = tested on: Staphylococcus aureus; test: Antimicrobial activity against multi-drug resistant Staphylococcus aureus assessed as reduction in bacterial growth by broth dilution method; type: functional
[8] = Hemolytic activity in human Red blood cell assessed as hemolysis incubated for 1 hrs by microplate reader based analysis; type: toxicity; conditions: erythrocyte
[9] = tested on: Escherichia coli; test: Antimicrobial activity against multi-drug resistant Escherichia coli assessed as reduction in bacterial growth by broth dilution method; type: functional

SMILES | MIC [1] [µM] | MIC [2] [µM] | MIC [3] [µM] | MIC [4] [µM] | MIC [5] [µM] | MIC [6] [µM] | MIC [7] [µM] | HC10 [8] [µM] | MIC [9] [µM]
CC[C@H](C)[C@H](NC(=O)[C@H](CCCCN)NC(=O)[C@@H](NC(=O)[C@H](Cc1ccccc1)NC(=O)[C@@H]1CCCN1C(=O)[C@H](Cc1c[nH]c2ccccc12)NC(=O)[C@H](Cc1c[nH]c2ccccc12)NC(=O)[C@H](Cc1c[nH]c2ccccc12)NC(=O)[C@@H]1CCCN1C(=O)[C@H](Cc1ccccc1)NC(=O)[C@@H](NC(=O)[C@H](CCCCN)NC(=O)[C@@H](NC(=O)[C@@H](N)CCCCN)[C@@H](C)CC)[C@@H](C)CC)[C@@H](C)CC)C(=O)N[C@@H](CCCCN)C(N)=O (H-KIKIFPWWWPFIKIK-NH2) | 8 (≈ 16.2 µg/mL) | 8 (≈ 16.2 µg/mL) | 16 (≈ 32.5 µg/mL) | 256 (≈ 520 µg/mL) | 8 (≈ 16.2 µg/mL) | 8 (≈ 16.2 µg/mL) | 8 (≈ 16.2 µg/mL) | 4.32 | 16 (≈ 32.5 µg/mL)
CC[C@H](C)[C@H](N)C(=O)N[C@@H](CCCCN)C(=O)N[C@H](C(=O)N[C@@H](CCCCN)C(=O)N[C@H](C(=O)N[C@@H](CCCCN)C(=O)N1CCC[C@H]1C(=O)N[C@@H](Cc1c[nH]c2ccccc12)C(=O)N[C@@H](Cc1c[nH]c2ccccc12)C(=O)N[C@@H](Cc1c[nH]c2ccccc12)C(=O)N1CCC[C@H]1C(=O)N[C@@H](CCCCN)C(=O)N[C@H](C(=O)N[C@@H](CCCCN)C(=O)N[C@H](C(=O)N[C@@H](CCCCN)C(=O)N[C@H](C(N)=O)[C@@H](C)CC)[C@@H](C)CC)[C@@H](C)CC)[C@@H](C)CC)[C@@H](C)CC (H-IKIKIKPWWWPKIKIKI-NH2) | 64 (≈ 142 µg/mL) | 64 (≈ 142 µg/mL) | 2 (≈ 4.44 µg/mL) | 64 (≈ 142 µg/mL) | 2 (≈ 4.44 µg/mL) | 4 (≈ 8.87 µg/mL) | 8 (≈ 17.7 µg/mL) | 116.64 | 64 (≈ 142 µg/mL)
CC(C)CCCCC(=O)N[C@@H](CCN)C(=O)N[C@H](C(=O)N[C@@H](CCN)C(=O)N[C@H]1CCNC(=O)[C@H]([C@@H](C)O)NC(=O)[C@H](CCN)NC(=O)[C@H](CCN)NC(=O)[C@H](CC(C)C)NC(=O)[C@@H](Cc2ccccc2)NC(=O)[C@H](CCN)NC1=O)[C@@H](C)O.CC[C@H](C)CCCCC(=O)N[C@@H](CCN)C(=O)N[C@H](C(=O)N[C@@H](CCN)C(=O)N[C@H]1CCNC(=O)[C@H]([C@@H](C)O)NC(=O)[C@H](CCN)NC(=O)[C@H](CCN)NC(=O)[C@H](CC(C)C)NC(=O)[C@@H](Cc2ccccc2)NC(=O)[C@H](CCN)NC1=O)[C@@H](C)O (X1-[Dab]T[Dab][Dab][Dab][dF]L[Dab][Dab]T; lactam 4-C) | 2 | 2 | 128 | 2 | 16 | 16 | 16 |  | 2
CC[C@H](C)[C@H](N)C(=O)N[C@@H](CCCCN)C(=O)N[C@H](C(=O)N[C@@H](CCCCN)C(=O)N[C@@H](Cc1ccccc1)C(=O)N1CCC[C@H]1C(=O)N[C@@H](Cc1c[nH]c2ccccc12)C(=O)N[C@@H](Cc1c[nH]c2ccccc12)C(=O)N[C@@H](Cc1c[nH]c2ccccc12)C(=O)N1CCC[C@H]1C(=O)N[C@@H](Cc1ccccc1)C(=O)N[C@@H](CCCCN)C(=O)N[C@H](C(=O)N[C@@H](CCCCN)C(=O)N[C@H](C(N)=O)[C@@H](C)CC)[C@@H](C)CC)[C@@H](C)CC (H-IKIKFPWWWPFKIKI-NH2) | 16 (≈ 32.5 µg/mL) | 16 (≈ 32.5 µg/mL) | 16 (≈ 32.5 µg/mL) | 256 (≈ 520 µg/mL) | 16 (≈ 32.5 µg/mL) | 16 (≈ 32.5 µg/mL) | 16 (≈ 32.5 µg/mL) | 9.48 | 32 (≈ 64.9 µg/mL)
NCCCC[C@H](NC(=O)[C@H](Cc1c[nH]c2ccccc12)NC(=O)[C@H](CCCCN)NC(=O)[C@H](Cc1c[nH]c2ccccc12)NC(=O)[C@@H]1CCCN1C(=O)[C@H](Cc1c[nH]c2ccccc12)NC(=O)[C@H](Cc1c[nH]c2ccccc12)NC(=O)[C@H](Cc1c[nH]c2ccccc12)NC(=O)[C@@H]1CCCN1C(=O)[C@H](Cc1c[nH]c2ccccc12)NC(=O)[C@H](CCCCN)NC(=O)[C@H](Cc1c[nH]c2ccccc12)NC(=O)[C@@H](N)CCCCN)C(N)=O (H-KWKWPWWWPWKWK-NH2) | 4 (≈ 8.11 µg/mL) | 8 (≈ 16.2 µg/mL) | 2 (≈ 4.05 µg/mL) | 16 (≈ 32.4 µg/mL) | 2 (≈ 4.05 µg/mL) | 2 (≈ 4.05 µg/mL) | 2 (≈ 4.05 µg/mL) | 10.37 | 4 (≈ 8.11 µg/mL)
